Measured values as given in patent publication US7799775B2, “Pyrimidine derivatives” (ASKA Pharmaceutical Co., Ltd., priority 2004, dated 2010).

How the values were obtained:
[1] = target: T1, human 5-HT1A receptor (Homo sapiens, UniProt P08908); test: Affinity measurement of the compounds to human 5-HT1A receptor (in vitro), [3H]8-OH-DPAT binding; details: test compound 100 nmols/L; [3H]8-OH-DPAT 0.25 nmols/L; CHO cell membrane expressing human 5-HT1A receptor; read-out: Percent Inhibition (%) on Each Receptor's Binding at 10^−7M, 5-HT1A
T1 construct: purchased Packard Bioscience; host or cells: CHO cells (membrane preparation)
T1 sequence (P08908 1-422): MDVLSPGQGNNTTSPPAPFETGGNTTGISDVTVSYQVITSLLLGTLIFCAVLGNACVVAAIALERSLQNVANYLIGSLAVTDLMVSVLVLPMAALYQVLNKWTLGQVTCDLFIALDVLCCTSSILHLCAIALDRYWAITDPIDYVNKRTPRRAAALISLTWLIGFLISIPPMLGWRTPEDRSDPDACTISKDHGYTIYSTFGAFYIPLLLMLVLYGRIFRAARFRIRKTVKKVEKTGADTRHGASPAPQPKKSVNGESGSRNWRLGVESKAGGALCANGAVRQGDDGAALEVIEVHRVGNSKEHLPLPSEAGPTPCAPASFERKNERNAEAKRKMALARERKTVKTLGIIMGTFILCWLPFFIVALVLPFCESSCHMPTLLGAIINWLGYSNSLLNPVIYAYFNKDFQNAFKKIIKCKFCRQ
Method in brief: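 Membranes from CHO cells expressing human 5-HT1A were incubated 60 min at 27 °C with 0.25 nmol/L [3H]8-OH-DPAT and compound in Tris/MgSO4/EDTA/ascorbate buffer, pH 7.4. Bound radioactivity was collected on PEI-soaked GF/C filters and counted; percent inhibition was corrected for non-specific binding defined with 10 μmol/L 8-OH-DPAT.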

[2] = target: T2, human 5-HT3 receptor (Homo sapiens, UniProt P46098); test: Measurement of affinity to human 5-HT3 receptor (in vitro), [3H]BRL-43694 binding; details: test compound 100 nmols/L; [3H]BRL-43694 0.5 nmols/L; HEK-293 cell membrane expressing human 5-HT3 receptor; read-out: Percent Inhibition (%) on Each Receptor's Binding at 10^−7M, 5-HT3
T2 construct: purchased BIOLINKS K.K; host or cells: HEK-293 cells (membrane preparation)
T2 sequence (P46098 24-478): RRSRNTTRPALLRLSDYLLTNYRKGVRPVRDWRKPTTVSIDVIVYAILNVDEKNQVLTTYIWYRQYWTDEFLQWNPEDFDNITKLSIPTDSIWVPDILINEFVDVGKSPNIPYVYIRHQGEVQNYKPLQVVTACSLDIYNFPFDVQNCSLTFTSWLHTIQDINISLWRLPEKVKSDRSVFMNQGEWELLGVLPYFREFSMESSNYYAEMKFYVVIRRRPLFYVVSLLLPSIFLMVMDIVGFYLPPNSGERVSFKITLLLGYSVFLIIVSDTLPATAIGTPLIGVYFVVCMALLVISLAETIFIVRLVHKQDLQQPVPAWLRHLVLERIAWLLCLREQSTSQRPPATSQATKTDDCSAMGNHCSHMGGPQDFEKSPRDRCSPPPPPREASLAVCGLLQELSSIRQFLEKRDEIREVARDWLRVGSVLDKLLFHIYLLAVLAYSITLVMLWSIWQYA
Method in brief: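 Membranes from HEK-293 cells expressing the receptor were incubated with 0.5 nmol/L radioligand and compound for 60 min at 25 °C in Tris/MgCl2/EDTA buffer, pH 7.5. Bound radioactivity was collected by filtration and counted. Percent inhibition was corrected for non-specific binding defined with 10 μmol/L tropisetron; compounds were tested at 100 nmol/L.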

SMILES | inhibition at 0.1 µM [1] | inhibition at 0.1 µM [2]
COc1ccc2ccnc(N3CCN4CCC[C@@H]4C3)c2c1 [Production Example 77, 1-((8aR)-octahydropyrrolo[1,2-a]pyrazin-2-yl)-7-methoxyisoquinoline] | 98.9% | 97.9%
c1cc2ccoc2c(N2CCN3CCCCC3C2)n1 (stereo not shown) [Production Example 118, 7-octahydropyrido[1,2-a]pyrazin-2-ylfuro[2,3-c]pyridine] | 76% | 84.9%
c1cc2occc2c(N2CCN3CCC[C@H]3C2)n1 [Production Example 105, 4-((8aS)-octahydropyrrolo[1,2-a]pyrazin-2-yl)furo[3,2-c]pyridine] | 72.7% | 96.4%
Cc1cc2c(N3CCNCC3)nccc2o1 [Production Example 25, 2-methylpiperazin-1-ylfuro[3,2-c]pyridine] | 83.2% | 65.5%
Cc1sc2nc(SCCCN3CCN(c4ccc5ccccc5n4)CC3)n(N)c(=O)c2c1C [Example 1-1, 3-amino-5,6-dimethyl-2-[3-(4-quinolin-2-ylpiperazin-1-yl)-propylthio]-3H-thieno[2,3-d]pyrimidin-4-one] | 94.5% | 94%
O[C@@H]1C[C@H]2CN(c3nccc4ccsc34)CCN2C1 [Production Example 112, 7-((7R,8aS)-7-hydroxyoctahydropyrrolo[1,2-a]pyrazin-2-yl)thieno-[2,3-c]pyridine] | 53.9% | 98.8%
CN1CCN(c2nccc3c(Cl)cccc23)CC1 [Production Example 61, 5-chloro-1-(4-methylpiperazin-1-yl)isoquinoline] | 25.3% | 94.1%
c1ccc(CO[C@@H]2C[C@H]3CN(c4nccc5ccsc45)CCN3C2)cc1 [Production Example 116, 7-((7R,8aS)-7-benzyloxyoctahydropyrrolo[1,2-a]pyrazin-2-yl)thieno-[2,3-c]pyridine] | 70.6% | 25.6%
CCOC(=O)c1sc2nc(SCCCN3CCN(c4ccc5ccccc5n4)CC3)n(N)c(=O)c2c1C [Example 1-14, 3-amino-5-methyl-4-oxo-2-[3-(4-quinolin-2-ylpiperazin-1-yl)-propylthio]-3,4-dihydrothieno[2,3-d]pyrimidine-6-carboxylic acid ethyl ester] | 99.8% | 95.9%
Clc1ccc2c(N3CCNCC3)nccc2c1 [Production Example 57, 6-chloro-1-piperazin-1-ylisoquinoline] | 88.9% | 96.5%
COc1ccc2ccnc(N3CCN(Cc4ccc5c(c4)OCO5)CC3)c2c1 [Production Example 71, 1-(4-benzo[1,3]dioxol-5-ylmethylpiperazin-1-yl)-7-methoxyisoquinoline] | 94.8% | 42.2%
CN1CCN(c2nccc3ccc(F)cc23)CC1 [Production Example 52, 7-fluoro-1-(4-methylpiperazin-1-yl)isoquinoline] | 84.1% | 97%
CN1CCN(c2nccc3cccnc23)CC1 [Production Example 23, 8-(4-methylpiperazin-1yl)[1,7]naphthyridine] | 83.2% | 85.8%

Further lines, results first:

inhibition at 0.1 µM [1] | inhibition at 0.1 µM [2] | SMILES
77.8% | 16.7% | CC(CCCc1nc2c(c(=O)n1C)CCCC2)N1CCN(c2ccc3ccccc3n2)CC1 (stereo not shown) [Example 7-14, 3-methyl-2-[4-(4-quinolin-2-ylpiperazin-1-yl)pentyl]-5,6,7,8-tetrahydro-3H-quinazolin-4-one]
85.8% | 84.7% | CCCn1c(CCCCN2CCN(c3ccc4ccccc4n3)CC2)nc2c(c1=O)CCCC2 [Example 7-3, 3-propyl-2-[4-(4-quinolin-2-ylpiperazin-1-yl)butyl]-5,6,7,8-tetrahydro-3H-quinazolin-4-one]
45% | 24.7% | O=c1c2c(nc(CCCCN3CCN(c4nc5ccccc5s4)CC3)n1Cc1ccccc1)CCCC2 [Example 7-11, 2-[4-(4-benzothiazol-2-ylpiperazin-1-yl)butyl]-3-benzyl-5,6,7,8-tetrahydro-3H-quinazolin-4-one]
95.8% | 58.5% | Nn1c(CCCCN2CCN(c3ccc4ccccc4n3)CC2)nc2c(c1=O)CCCCC2 [Example 4-42, 3-amino-2-[4-(4-quinolin-2-ylpiperazin-1-yl)butyl]-5,6,7,8,9-pentahydro-3H-cyclohepta[d]pyrimidin-4-one]
92.4% | 39.3% | Nn1c(NCCCN2CCN(c3ccc4ccccc4n3)CC2)nc2c(c1=O)CCCC2 [Example 6-2, 3-amino-2-[3-(4-quinolin-2-ylpiperazin-1-yl)propylamino]-5,6,7,8-tetrahydro-3H-quinazolin-4-one]
85.2% | 71.6% | Cn1c(CCCCN2CCN(c3ccc4ccccc4n3)CC2)nc2ccc(Br)cc2c1=O [Example 7-26, 6-bromo-3-methyl-2-[4-(4-quinolin-2-ylpiperazin-1-yl)butyl]-3H-quinazolin-4-one]
78.3% | 30% | Cc1ccc2c(=O)n(C)c(CCCCN3CCN(c4ccc5ccccc5n4)CC3)nc2c1 [Example 7-24, 3,7-dimethyl-2-[4-(4-quinolin-2-ylpiperazin-1-yl)butyl]-3H-quinazolin-4-one]
72.2% | 66.8% | O=c1c2ccccc2nc(CCCCN2CCN(c3ccc4ccccc4n3)CC2)n1Cc1ccccc1 [Example 7-16, 3-benzyl-2-[4-(4-quinolin-2-ylpiperazin-1-yl)butyl]-3H-quinazolin-4-one]
77% | 96.9% | Cc1sc2nc(CCCCN3CCN(c4ccc5ccccc5n4)CC3)[nH]c(=O)c2c1C [Example 3-1, 5,6-dimethyl-2-[4-(4-quinolin-2-ylpiperazin-1-yl)butyl]-3H-thieno[2,3-d]pyrimidin-4-one]
16.1% | 7.1% | CCn1c(CCCCN2CCN(c3nc4ccccc4s3)CC2)nc2c(c1=O)CCCC2 [Example 7-10, 2-[4-(4-benzothiazol-2-ylpiperazin-1-yl)butyl]-3-ethyl-5,6,7,8-tetrahydro-3H-quinazolin-4-one]
50.6% | 1.9% | COc1ccc(-n2c(CCCCN3CCN(c4ccc5ccccc5n4)CC3)nc3ccccc3c2=O)cc1 [Example 7-17, 3-(4-methoxyphenyl)-2-[4-(4-quinolin-2-ylpiperazin-1-yl)butyl]-3H-quinazolin-4-one]
74.7% | 87.3% | Cn1c(SCCCN2CCN(c3ccc4ccccc4n3)CC2)nc2ccccc2c1=O [Example 7-28]
97.5% | 99.7% | Cn1c(CCCCN2CCN(c3ccc4ccccc4n3)CC2)nc2ccc(Cl)cc2c1=O [Example 7-25, 6-chloro-3-methyl-2-[4-(4-quinolin-2-ylpiperazin-1-yl)butyl]-3H-quinazolin-4-one]
62.1% | 35% | CC(C)n1c(CCCCN2CCN(c3ccc4ccccc4n3)CC2)nc2ccccc2c1=O [Example 7-15, 3-isopropyl-2-[4-(4-quinolin-2-ylpiperazin-1-yl)butyl]-3H-quinazolin-4-one]
85% | 7.4% | Cn1c(CCCCN2CCN(c3ccc4ccccc4n3)CC2)nc2c(cnn2C)c1=O [Example 7-19, 1,5-dimethyl-6-[4-(4-quinolin-2-ylpiperazin-1-yl)butyl]-1,5-dihydropyrazolo[3,4-d]pyrimidin-4-one]
96.9% | 50.2% | Nn1c(CCCCN2CCN(c3ccc4ccccc4n3)CC2)nc2ccc(F)cc2c1=O [Example 4-56, 3-amino-6-fluoro-2-[4-(4-quinolin-2-ylpiperazin-1-yl)butyl]-3H-quinazolin-4-one]
